# According to patent US12194039B2, “Methods of treating heart failure by administering omecamtiv mecarbil” (Cytokinetics, Inc., priority 2020, dated 2025):
# Read-outs that look alike come from different tables or passages of the source.
# System: patients with HFrEF by ejection fraction quartile
# Assay type: in vivo, human
# Design: Change from baseline in KCCQ Total Symptom Score, least square mean / KCCQ Total Symptom Score Inpatient, Treatment Difference, least squares mean / KCCQ Total Symptom Score Outpatient, Treatment Difference, least squares mean / KCCQ Total Symptom Score, Treatment Difference, least squares mean: scale not given here
# Conditions: for Adjudicated First Major Cardiac Ischemic Events, % / Adjudicated First Stroke, % / Adverse Event: Ventricular Tachyarrhythmia, % / All-cause Death (%) / All-cause Death Rate / All-cause Death n/N / Any treatment Emergent Serious Adverse Events, % / Positively Adjudicated Myocardial Infarction, % / Serious Adverse Event: Ventricular Arrhythmia Requiring Treatment, % / 1st HF Hospitalization (%) / 1st HF Hospitalization Rate / 1st HF Hospitalization n/N / First HF Event (%) / First HF Event Rate / First HF Event n/N / Primary Outcome (%) / Primary Outcome Rate / Primary Outcome n/N / Total HF Events, Events / Total HF Events, Rate / Total HF Hospitalizations, Events / Total HF Hospitalizations, Rate: OM group; for Adjudicated First Major Cardiac Ischemic Events, Relative Risk / Adjudicated First Stroke, Relative Risk / Adverse Event: Ventricular Tachyarrhythmia, Relative Risk / All-cause Death ARR / All-cause Death HR (95% CI) / Any treatment Emergent Serious Adverse Events, Relative Risk / Positively Adjudicated Myocardial Infarction, Relative Risk / Serious Adverse Event: Ventricular Arrhythmia Requiring Treatment, Relative Risk / 1st HF Hospitalization ARR / 1st HF Hospitalization HR (95% CI) / First HF Event ARR / First HF Event HR (95% CI) / Primary Outcome ARR / Primary Outcome HR (95% CI) / Total HF Events, ARR / Total HF Events, Ratio (95% CI) / Total HF Hospitalizations, ARR / Total HF Hospitalizations, Ratio (95% CI): OM vs placebo
# Protocol: Continuous variables were summarized via means and standard deviations or medians and interquartile ranges, as appropriate. Categorical variables are summarized with counts and percentages. Tests of trend across categories were conducted via linear regression, Cuzick's non-parametric trend test, and Chi-squared tests of trend, respectively. Treatment effects on continuous outcomes were assessed via linear regression models adjusted for the corresponding baseline value of the parameter of interest. Survival analyses were conducted using Poisson regression models to estimate incidence rates, rate differences, and rate ratios and Cox proportional hazards models to estimate hazard ratios. […] To allow for potentially non-linear associations between ejection fraction and time-to-event outcomes, restricted cubic splines were utilized in the Poisson regression models with 3 knots. All analyses were conducted using STATA 16 (College Station, Tex.). P-values <0.05 were considered statistically significant. Due to the exploratory nature of these analyses, no adjustments were made for multiple comparisons.
# Within each randomization setting subgroup least squares mean is from the mixed model which includes baseline total symptom score value, region, baseline eGFR, scheduled visit, treatment group and interaction of treatment with scheduled visit as covariates. Influence of Ejection Fraction on the Treatment Effect of Omecamtiv Mecarbil
# [1] = EF 23-28%, baseline to Week 24, vs placebo
# [2] = EF 29-32%, baseline to Week 24, vs placebo
compound,measurement,setting,value
COC(=O)N1CCN(Cc2cccc(NC(=O)Nc3ccc(C)nc3)c2F)CC1 [omecamtiv mecarbil],"Adjudicated First Major Cardiac Ischemic Events, %",EF22%,4.8%
same,"Adjudicated First Stroke, %",EF22%,1.5%
same,"Adverse Event: Ventricular Tachyarrhythmia, %",EF22%,9.8%
same,All-cause Death (%),EF22%,(29%)
same,All-cause Death Rate,EF22%,17.0 per 100 patient years
same,All-cause Death n/N,EF22%,329/1127
same,"Any treatment Emergent Serious Adverse Events, %",EF22%,(60.7%)
same,"Positively Adjudicated Myocardial Infarction, %",EF22%,3.3%
same,"Serious Adverse Event: Ventricular Arrhythmia Requiring Treatment, %",EF22%,3.6%
same,"Adjudicated First Major Cardiac Ischemic Events, Relative Risk",EF22%,RR: 1.19
same,"Adjudicated First Stroke, Relative Risk",EF22%,RR: 0.65
same,"Adverse Event: Ventricular Tachyarrhythmia, Relative Risk",EF22%,RR: 1.00
same,All-cause Death ARR,EF22%,0.8 per 100 patient years
same,All-cause Death HR (95% CI),EF22%,"0.98 (0.84, 1.14)"
same,"Any treatment Emergent Serious Adverse Events, Relative Risk",EF22%,RR: 0.94
same,"Positively Adjudicated Myocardial Infarction, Relative Risk",EF22%,RR: 1.22
same,"Serious Adverse Event: Ventricular Arrhythmia Requiring Treatment, Relative Risk",EF22%,RR: 0.88
same,1st HF Hospitalization (%),EF 23-28%,(27%)
same,1st HF Hospitalization Rate,EF 23-28%,17.8 per 100 patient years
same,1st HF Hospitalization n/N,EF 23-28%,295/1086
same,"Adjudicated First Major Cardiac Ischemic Events, %",EF 23-28%,4.3%
same,"Adjudicated First Stroke, %",EF 23-28%,1.8%
same,"Adverse Event: Ventricular Tachyarrhythmia, %",EF 23-28%,8.3%
same,All-cause Death (%),EF 23-28%,(26%)
same,All-cause Death Rate,EF 23-28%,14.4 per 100 patient years
same,All-cause Death n/N,EF 23-28%,278/1086
same,"Any treatment Emergent Serious Adverse Events, %",EF 23-28%,(56.9%)
same,First HF Event (%),EF 23-28%,(28%)
same,First HF Event Rate,EF 23-28%,18.5 per 100 patient years
same,First HF Event n/N,EF 23-28%,304/1086
same,"Positively Adjudicated Myocardial Infarction, %",EF 23-28%,2.7%
same,Primary Outcome (%),EF 23-28%,(36%)
same,Primary Outcome Rate,EF 23-28%,24.0 per 100 patient years
same,Primary Outcome n/N,EF 23-28%,393/1086
same,"Serious Adverse Event: Ventricular Arrhythmia Requiring Treatment, %",EF 23-28%,3.2%
same,"Total HF Events, Events",EF 23-28%,577
same,"Total HF Events, Rate",EF 23-28%,30.0 per 100 pt-yrs
same,"Total HF Hospitalizations, Events",EF 23-28%,541
same,"Total HF Hospitalizations, Rate",EF 23-28%,28.1 per 100 pt-yrs
same,1st HF Hospitalization ARR,EF 23-28%,1.8 per 100 patient years
same,1st HF Hospitalization HR (95% CI),EF 23-28%,"0.86 (0.74, 1.01)"
same,"Adjudicated First Major Cardiac Ischemic Events, Relative Risk",EF 23-28%,1.00
same,"Adjudicated First Stroke, Relative Risk",EF 23-28%,0.53
same,"Adverse Event: Ventricular Tachyarrhythmia, Relative Risk",EF 23-28%,0.98
same,All-cause Death ARR,EF 23-28%,1.4 per 100 patient years
same,All-cause Death HR (95% CI),EF 23-28%,"0.89 (0.76, 1.05)"
same,"Any treatment Emergent Serious Adverse Events, Relative Risk",EF 23-28%,0.96
same,First HF Event ARR,EF 23-28%,2.4 per 100 patient years
same,First HF Event HR (95% CI),EF 23-28%,"0.84 (0.72, 0.98)"
same,"Positively Adjudicated Myocardial Infarction, Relative Risk",EF 23-28%,0.89
same,Primary Outcome ARR,EF 23-28%,3.3 per 100 patient years
same,Primary Outcome HR (95% CI),EF 23-28%,"0.85 (0.74, 0.97)"
same,"Serious Adverse Event: Ventricular Arrhythmia Requiring Treatment, Relative Risk",EF 23-28%,1.04
same,"Total HF Events, ARR",EF 23-28%,4.0 per 100 pt-yrs
same,"Total HF Events, Ratio (95% CI)",EF 23-28%,"0.83 (0.68, 1.01)"
same,"Total HF Hospitalizations, ARR",EF 23-28%,3.2 per 100 pt-yrs
same,"Total HF Hospitalizations, Ratio (95% CI)",EF 23-28%,"0.84 (0.69, 1.02)"
same,"Creatinine, Treatment Difference",[1],0.01 mg/dL
same,"Heart rate, Treatment Difference",[1],−1.7 bpm
same,"KCCQ Total Symptom Score, Treatment Difference, least squares mean",[1],−0.6
same,NT-proBNP (Ratio),[1],0.90
same,"Potassium, Treatment Difference",[1],-0.01 mmol/L
same,"Systolic BP, Treatment Difference",[1],−0.6 mmHg
same,Troponin I (Ratio),[1],1.29
same,"Troponin I, Treatment Difference (95% CI)",[1],"4 (3, 5) ng/L"
same,1st HF Hospitalization (%),EF 29-32%,(27%)
same,1st HF Hospitalization Rate,EF 29-32%,17.6 per 100 patient years
same,1st HF Hospitalization n/N,EF 29-32%,279/1015
same,"Adjudicated First Major Cardiac Ischemic Events, %",EF 29-32%,4.1%
same,"Adjudicated First Stroke, %",EF 29-32%,2.4%
same,"Adverse Event: Ventricular Tachyarrhythmia, %",EF 29-32%,6.9%
same,All-cause Death (%),EF 29-32%,(26%)
same,All-cause Death Rate,EF 29-32%,13.9 per 100 patient years
same,All-cause Death n/N,EF 29-32%,260/1015
same,"Any treatment Emergent Serious Adverse Events, %",EF 29-32%,(57.3%)
same,First HF Event (%),EF 29-32%,(28%)
same,First HF Event Rate,EF 29-32%,18.2 per 100 patient years
same,First HF Event n/N,EF 29-32%,286/1015
same,"Positively Adjudicated Myocardial Infarction, %",EF 29-32%,2.2%
same,Primary Outcome (%),EF 29-32%,(37%)
same,Primary Outcome Rate,EF 29-32%,23.8 per 100 patient years
same,Primary Outcome n/N,EF 29-32%,375/1015
same,"Serious Adverse Event: Ventricular Arrhythmia Requiring Treatment, %",EF 29-32%,2.1%
same,"Total HF Events, Events",EF 29-32%,506
same,"Total HF Events, Rate",EF 29-32%,27.1 per 100 pt-yrs
same,"Total HF Hospitalizations, Events",EF 29-32%,472
same,"Total HF Hospitalizations, Rate",EF 29-32%,25.3 per 100 pt-yrs
same,1st HF Hospitalization ARR,EF 29-32%,−2.1 per 100 patient years
same,1st HF Hospitalization HR (95% CI),EF 29-32%,"1.19 (1.01, 1.42)"
same,"Adjudicated First Major Cardiac Ischemic Events, Relative Risk",EF 29-32%,1.08
same,"Adjudicated First Stroke, Relative Risk",EF 29-32%,0.83
same,"Adverse Event: Ventricular Tachyarrhythmia, Relative Risk",EF 29-32%,0.96
same,All-cause Death ARR,EF 29-32%,−2.0 per 100 patient years
same,All-cause Death HR (95% CI),EF 29-32%,"1.19 (0.99, 1.42)"
same,"Any treatment Emergent Serious Adverse Events, Relative Risk",EF 29-32%,0.99
same,First HF Event ARR,EF 29-32%,−1.3 per 100 patient years
same,First HF Event HR (95% CI),EF 29-32%,"1.13 (0.96, 1.33)"
same,"Positively Adjudicated Myocardial Infarction, Relative Risk",EF 29-32%,1.00
same,Primary Outcome ARR,EF 29-32%,−1.4 per 100 patient years
same,Primary Outcome HR (95% CI),EF 29-32%,"1.11 (0.96, 1.28)"
same,"Serious Adverse Event: Ventricular Arrhythmia Requiring Treatment, Relative Risk",EF 29-32%,0.78
same,"Total HF Events, ARR",EF 29-32%,0.6 per 100 pt-yrs
same,"Total HF Events, Ratio (95% CI)",EF 29-32%,"1.14 (0.93, 1.40)"
same,"Total HF Hospitalizations, ARR",EF 29-32%,−0.1 per 100 pt-yrs
same,"Total HF Hospitalizations, Ratio (95% CI)",EF 29-32%,"1.18 (0.96, 1.46)"
same,"Creatinine, Treatment Difference",[2],0.01 mg/dL
same,"Heart rate, Treatment Difference",[2],−1.9 bpm
same,"KCCQ Total Symptom Score, Treatment Difference, least squares mean",[2],+0.3
same,NT-proBNP (Ratio),[2],0.95
same,"Potassium, Treatment Difference",[2],-0.01 mmol/L
same,"Systolic BP, Treatment Difference",[2],−0.6 mmHg
